Data on 18 compounds can be found in patent US10370401B2, “Substituted nucleosides, nucleotides and analogs thereof” (Alios BioPharma, Inc., priority 2013, dated 2019).

Read-outs that look alike come from different tables or passages of the source.

One series deals with Human rhinovirus 1B. The series is described as follows: Picornavirus assay (CPE, CellTiter-Glo, HeLa-OHIO cells). The class given is cell-based. Background: Cellular ATP, detected with luciferase, serves as a proxy for viable cell number.
Series [1] has as its system Dengue virus type 2 strain New Guinea C (NG-C) or Dengue virus type 4 strain H241. The series is described as follows: Dengue virus cell-based assay (Huh-7.5 cells, CellTiter-Glo). As to the method:
The Dengue virus type 2 strain New Guinea C (NG-C) and the Dengue virus type 4 strain H241 were purchased from ATCC (Manassas, Va.; item numbers VR-1584 and VR-1490, respectively). 24 h prior to dosing, Huh-7.5 cells were plated in 96 well plates at a density of 1.5×10^5/mL in DMEM medium supplemented with 10% fetal bovine serum, 1% HEPES buffer, 1% Penicillin/Streptomycin and 1% non-essential amino acids (all Mediatech, Manassas, Va.). At the day of infection, serially diluted compounds were added to cells and incubated for 4 h. After the end of the 4 h pre-incubation period, cells were infected with either Dengue virus type 2 NG-C or Dengue virus type 4H241. The virus inoculum was selected to cause 80-90% cytopathic effect in five to six days. Infected cells were incubated for five (NG-C) to six (H241) days at 37° C., 5% CO2. To develop the assay, 100 μL media was replaced with 100 μl CellTiter-Glo® reagent (Promega, Madison, Wis.), and incubated for 10 mins at RT. Luminescence was measured on a Victor X3 multi-label plate reader. Potential compound cytotoxicity of was determined using uninfected parallel cultures.

A further series deals with subgenomic HCV replicon. The series is described as follows: HCV replicon assay (Huh-7, luciferase reporter). Format: cell-based. The note with it: Hepatitis C virus. (A replicon is a self-replicating genome or part of one, used to study replication in cells.)
The nature of series [2]: Cytotoxicity in HeLa OHIO host cell line. The class given is cell-based. The following applies: human, HeLa-OHIO cells, n>5.
The test system of series [3] is human rhinovirus 16 (HRV-16), coxasackie B3 (CVB3), enterovirus-68 (EV-68) and enterovirus-71 (EV-71). In words: Enterovirus assay (four viruses, CellTiter Glo). The class given is cell-based.
The next series relates to HRV-89. The series is described as follows: Human rhinovirus strain panel assay, HRV-89. The class given is cell-based. The following applies: Rhinovirus A, HRV89.
Where [4] appears, read: Rhinovirus A, 96 h, Human rhinovirus 1B, HeLa-OHIO cells, 4 d at 33° C., read-out: EC50.
The mark [5] stands for this setting: Human rhinovirus 1B, HeLa-OHIO cells, 4 d at 33° C., read-out: EC50.
The mark [6] stands for this setting: Huh-7.5 cells, antiviral activity, dengue type (2 NG-C or 4 H241) not given, read-out: IC50.

With `CC(C)OC(=O)OCOP(=O)(OCOC(=O)OC(C)C)OC[C@@]1(F)O[C@@H](n2ccc(=O)[nH]c2=O)[C@](C)(O)[C@@H]1O` [Compound 9], in the series on Human rhinovirus 1B (setting [4]), the concentration for a half-maximal effect (EC50) is less than 1 µM. Also, in series [1] (Dengue virus, Huh7.5), the IC50 is less than 10 µM.

For `CCOc1nc(N)nc2c1ncn2[C@@H]1O[C@](F)(COP(=O)(N[C@@H](C)C(=O)OC2CCCCC2)Oc2ccccc2)[C@@H](O)[C@@]1(C)O` (stereo partly shown) [Compound 10], the EC50 in the series with Human rhinovirus 1B (Rhinovirus A, 96 h) is less than 1 µM. Besides, the IC50 in series [1] (Dengue virus, Huh7.5) was less than 1 µM.

In the series with Human rhinovirus 1B (Rhinovirus A, 96 h), `C#C[C@]1(O)[C@H](n2ccc(=O)[nH]c2=O)O[C@](F)(COP(=O)(N[C@@H](C)C(=O)OC2CCCCC2)Oc2ccccc2)[C@H]1O` (stereo partly shown) [Compound 13] came in with an EC50 of less than 1 µM. This compound came in with an IC50 in series [1] (Dengue virus, Huh7.5) of less than 1 µM.

Take `C[C@H](NP(=O)(OC[C@@]1(F)O[C@@H](n2cnc3c(=O)[nH]c(N)nc32)[C@](C)(O)[C@@H]1F)Oc1ccccc1)C(=O)OC1CCCCC1` (stereo partly shown) [Compound 14]: the EC50 lay in the range of 10 to 100 µM in the series on Human rhinovirus 1B (Rhinovirus A, 96 h) and 10 to 100 µM in the series on subgenomic HCV replicon (Huh-7, 72 h). In series [1] (Dengue virus, Huh7.5), the IC50 was less than 10 µM.

For the compound `CCOc1nc(N)nc2c1ncn2[C@@H]1O[C@](F)(COP(=O)(N[C@@H](C)C(=O)OC2CCCCC2)Oc2ccccc2)[C@@H](F)[C@@]1(C)O` (stereo partly shown) [Compound 16], the EC50 lay in the range of 1 to 10 µM with Human rhinovirus 1B (Rhinovirus A, 96 h) and 1 to 10 µM in the series with subgenomic HCV replicon (Huh-7, 72 h). The same compound returned an IC50 in series [1] (Dengue virus, Huh7.5) of less than 10 µM.

`CCOc1nc(N)nc2c1ncn2[C@@H]1O[C@](F)(CO[P@](=O)(N[C@@H](C)C(=O)OC2CCCCC2)Oc2ccccc2)[C@@H](O)[C@@]1(C)F` [Compound 25] had an EC50 in the series with Human rhinovirus 1B (Rhinovirus A, 96 h) of less than 1 µM. This compound also came in with an IC50 in series [1] (Dengue virus, Huh7.5) of less than 1 µM.

`CCOc1nc(N)nc2c1ncn2[C@@H]1O[C@](F)(CO[P@@](=O)(N[C@@H](C)C(=O)OC2CCCCC2)Oc2ccccc2)[C@@H](O)[C@@]1(C)F` [Compound 26] showed an EC50 in the series on Human rhinovirus 1B (Rhinovirus A, 96 h) of 1 to 10 µM. In series [1] (Dengue virus, Huh7.5), this compound came in with an IC50 of less than 1 µM.

With `C#C[C@]1(O)[C@H](n2cnc3c(OCC)nc(N)nc32)O[C@](F)(CO[P@](=O)(N[C@@H](C)C(=O)OC2CCCCC2)Oc2ccccc2)[C@H]1O` [Compound 27], the EC50 with Human rhinovirus 1B (setting [5]) was less than 1 µM. Also, the IC50 in series [1] (setting [6]) was less than 10 µM.

For `C#C[C@]1(O)[C@H](n2cnc3c(OCC)nc(N)nc32)O[C@](F)(CO[P@@](=O)(N[C@@H](C)C(=O)OC2CCCCC2)Oc2ccccc2)[C@H]1O` [Compound 28], the EC50 with Human rhinovirus 1B (setting [5]) was less than 1 µM. Besides, in series [1] (setting [6]), the IC50 was less than 10 µM.

Turning to `CC(C)OC(=O)OCOP(=O)(OCOC(=O)OC(C)C)OC[C@@]1(CF)O[C@@H](n2ccc(=O)[nH]c2=O)[C@](C)(O)[C@@H]1O` [Compound 44], in series [2], the CC50 was greater than 100 µM. Moreover, the EC50 was 0.38 to 2.52 µM in series [3] (HRV-16, CVB3, EV-68 (HeLa-OHIO cells) and EV-71 (RD cells), read-out: EC50 ranging (across four viruses)); 1.39 ± 1.14 µM in series [3] (mean over HRV-16, CVB3, EV-68 and EV-71, read-out: EC50 mean (across four viruses)); 1 to 2 µM in the series with HRV-89 (HRV-89, HeLa-OHIO cells, read-out: EC50); less than 1 µM with Human rhinovirus 1B (setting [4]); less than 1 µM in the series with subgenomic HCV replicon (Huh-7 HCV replicon cells, luciferase, 72 hours, read-out: EC50).

As to `CC(C)OC(=O)OCOP(=O)(OCOC(=O)OC(C)C)OC[C@@]1(F)O[C@@H](n2cnc3c(=O)[nH]c(N)nc32)[C@](C)(O)[C@@H]1O` [Compound 46], the concentration for a half-maximal effect (EC50) with Human rhinovirus 1B (setting [4]) is less than 1 µM. The compound also gave an IC50 in series [1] (Dengue virus, Huh7.5) of less than 100 µM.

As to `C#C[C@]1(O)[C@H](n2ccc(=O)[nH]c2=O)O[C@](F)(COP(=O)(OCOC(=O)OC(C)C)OCOC(=O)OC(C)C)[C@H]1O` [Compound 53], in the series with Human rhinovirus 1B (setting [4]), the EC50 was less than 1 µM. The compound also registered an IC50 in series [1] (Dengue virus, Huh7.5) of less than 10 µM.

Consider `CCOc1nc(N)nc2c1ncn2[C@@H]1O[C@](F)(COP(=O)(OCOC(=O)OC(C)C)OCOC(=O)OC(C)C)[C@@H](O)[C@@]1(C)O` [Compound 55], for which the EC50 with Human rhinovirus 1B (setting [4]) is less than 1 µM. In series [1] (Dengue virus, Huh7.5), the half-maximal inhibitory concentration (IC50) was less than 1 µM.

For `CCOc1nc(N)nc2c1ncn2[C@@H]1O[C@]2(F)CO[P@](=O)(OC(C)C)O[C@H]2[C@@]1(C)F` [Compound 86], the EC50 in the series with Human rhinovirus 1B (setting [4]) fell in the range of 10 to 100 µM. The same compound displayed an IC50 in series [1] (Dengue virus, Huh7.5) of less than 1 µM.

Turning to `CCOc1nc(N)nc2c1ncn2[C@@H]1O[C@]2(F)CO[P@](=O)(OC(C)C)O[C@H]2[C@@]1(C)O` [Compound 88], in the series with Human rhinovirus 1B (setting [4]), the EC50 is 10 to 100 µM. The same compound registered a 50% inhibitory concentration (IC50) in series [1] (Dengue virus, Huh7.5) of less than 10 µM.

For `CCOc1nc(N)nc2c1ncn2[C@@H]1O[C@]2(F)CO[P@@](=O)(OC(C)C)O[C@H]2[C@@]1(C)O` [Compound 89], the EC50 with Human rhinovirus 1B (setting [4]) fell in the range of 10 to 100 µM. In series [1] (Dengue virus, Huh7.5), this compound yielded an IC50 of less than 10 µM.

As to `CC(C)OC(=O)OCOP(=O)(OCOC(=O)OC(C)C)OC[C@@]1(CF)O[C@@H](n2ccc(=O)[nH]c2=O)[C@](C)(O)[C@@H]1OC(=O)C(N)C(C)C` (stereo partly shown) [Compound 160], the CC50 in series [2] is greater than 100 µM. The EC50 in the series on HRV-89 is 1 to 2 µM; in the series with Human rhinovirus 1B (Rhinovirus A, 96 h), less than 1 µM.

For the compound `CC(C)OC(=O)OCOP(=O)(OCOC(=O)OC(C)C)OC[C@@]1(F)O[C@@H](n2ccc(=O)[nH]c2=O)[C@](C)(F)[C@@H]1O` [Compound 161], the concentration for a half-maximal effect (EC50) in the series with Human rhinovirus 1B (setting [4]) lay in the range of 1 to 10 µM. The same compound registered an IC50 in series [1] (Dengue virus, Huh7.5) of less than 10 µM.

As usually defined, the EC50 is the concentration that produces a half-maximal response. The IC50 is the midpoint of a concentration-inhibition curve. As usually defined, the CC50 is the concentration that lowers cell viability or growth by half. The low end stands for greater toxicity to the cells, the high end for lower toxicity to the cells.
